Source: ChEMBL document CHEMBL1130563, “The synthesis of (R)-1-(2-oxocyclopentyliden)-2-alkanols and the (S)-forms, and their bio-antimutagenic activity against UV-induced Escherichia coli WP2 B/r Trp” (1997)
The source made the active and inactive calls. The rule behind the calls is not given here.

What was measured:
Escherichia coli [1] = assay: Microbicidal activity against UV-induced Escherichia coli WP2 B/r Trp at a dose of 120 ug/mL; Not active; format: functional, organism-based
Escherichia coli [2] = assay: Bio-antimutagenic activity against UV-induced Escherichia coli WP2 B/r Trp; format: functional
Escherichia coli [3] = assay: Compound was tested for half inhibition-dose of mutation frequency of UV-induced Escherichia coli WP2 B/r Trp; format: functional
Escherichia coli [4] = assay: Bio-antimutagenic activity against UV-induced Escherichia coli WP2 B/r Trp; Not active; format: functional, organism-based
Escherichia coli [5] = assay: Microbicidal activity against UV-induced Escherichia coli WP2 B/r Trp at a dose of 150 ug/mL; Not active; format: functional, organism-based

Structure (SMILES) | Activity (Escherichia coli [1]) | AD50 (Escherichia coli [2]) | AD50 (Escherichia coli [3]) | AD50 (Escherichia coli [4]) | Activity (Escherichia coli [5])
CCCCCC[C@H](O)/C=C1/CCCC1=O | inactive | 50 µg/mL | – | – | –
CCCCCCC(O)/C=C1/CCCC1=O (stereo not given) | – | – | 79 µg/mL | – | –
CCCCCCCC[C@H](O)/C=C1/CCCC1=O | inactive | 50 µg/mL | – | – | –
CCCCCC[C@@H](O)/C=C1/CCCC1=O | – | – | – | inactive | inactive
CCCCCCCCC(O)/C=C1/CCCC1=O (stereo not given) | – | – | 6.7 µg/mL | – | –
CCCCCCCC[C@@H](O)/C=C1/CCCC1=O | – | – | – | inactive | inactive
